The target in experiment [1] is Mitogen-activated protein kinase kinase kinase 20 (Homo sapiens) (UniProt Q9NYL2). Put plainly: Selectivity interaction (Ambit KINOMEscan and KiNATiv profiling in Jurkat cells) EUB0000090b MAP3K20. The conditions noted are these: at 1 µM. Type of experiment: cell-based.
Experiment [2] concerns the target Mitogen-activated protein kinase 11 (Homo sapiens) (UniProt Q15759). Put plainly: Selectivity interaction (SelectScreen profiling (Invitrogen)) EUB0000607a MAPK11. Conditions: at 2 µM.
Experiment [3] concerns the target T1, Uncharacterized serine/threonine-protein kinase SBK3 (Homo sapiens) (UniProt P0C264).
T1 sequence (whole entry): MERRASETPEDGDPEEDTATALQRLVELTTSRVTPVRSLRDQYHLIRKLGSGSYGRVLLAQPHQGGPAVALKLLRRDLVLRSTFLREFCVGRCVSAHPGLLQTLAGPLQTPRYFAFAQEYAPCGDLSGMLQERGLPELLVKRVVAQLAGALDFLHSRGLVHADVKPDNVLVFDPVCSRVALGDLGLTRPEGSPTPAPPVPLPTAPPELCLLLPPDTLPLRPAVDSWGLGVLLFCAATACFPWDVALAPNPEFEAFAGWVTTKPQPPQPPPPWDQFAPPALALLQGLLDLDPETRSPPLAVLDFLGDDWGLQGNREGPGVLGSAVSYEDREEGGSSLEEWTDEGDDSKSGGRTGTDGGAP
Conditions: at 10 µM.

Experiment [4] has as its target MAP kinase-interacting serine/threonine-protein kinase 2 (Homo sapiens, UniProt Q9HBH9). Put plainly: Selectivity interaction (ProQinase) EUB0000171b MKNK2.
Experiment [5] deals with Myosin light chain kinase 2, skeletal/cardiac muscle (Homo sapiens) (UniProt Q9H1R3). The experiment can be described thus: Selectivity interaction (KinomeScan (DiscoverX)) EUB0000092b MYLK2. The conditions noted are these: at 10 µM.
Chain of Myosin light chain kinase 2, skeletal/cardiac muscle (Homo sapiens) (Q9H1R3 whole entry): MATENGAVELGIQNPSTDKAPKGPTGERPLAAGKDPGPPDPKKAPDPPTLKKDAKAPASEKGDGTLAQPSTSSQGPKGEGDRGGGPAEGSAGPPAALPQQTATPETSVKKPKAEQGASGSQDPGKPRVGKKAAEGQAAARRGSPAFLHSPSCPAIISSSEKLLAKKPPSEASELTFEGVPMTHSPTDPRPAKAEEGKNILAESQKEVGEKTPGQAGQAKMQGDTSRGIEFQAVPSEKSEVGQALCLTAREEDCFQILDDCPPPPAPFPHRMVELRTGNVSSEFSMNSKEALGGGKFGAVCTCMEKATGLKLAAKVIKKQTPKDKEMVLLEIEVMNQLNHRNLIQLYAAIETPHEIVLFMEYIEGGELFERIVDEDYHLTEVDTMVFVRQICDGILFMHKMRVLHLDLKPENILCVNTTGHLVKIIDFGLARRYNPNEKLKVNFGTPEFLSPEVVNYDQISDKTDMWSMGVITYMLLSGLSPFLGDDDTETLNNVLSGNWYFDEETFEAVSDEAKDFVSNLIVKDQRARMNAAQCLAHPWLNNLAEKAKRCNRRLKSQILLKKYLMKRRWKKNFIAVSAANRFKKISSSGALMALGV
The target of experiment [6] is T2, Mitogen-activated protein kinase kinase kinase 5 (Homo sapiens) (UniProt Q99683).
T2 sequence (whole entry): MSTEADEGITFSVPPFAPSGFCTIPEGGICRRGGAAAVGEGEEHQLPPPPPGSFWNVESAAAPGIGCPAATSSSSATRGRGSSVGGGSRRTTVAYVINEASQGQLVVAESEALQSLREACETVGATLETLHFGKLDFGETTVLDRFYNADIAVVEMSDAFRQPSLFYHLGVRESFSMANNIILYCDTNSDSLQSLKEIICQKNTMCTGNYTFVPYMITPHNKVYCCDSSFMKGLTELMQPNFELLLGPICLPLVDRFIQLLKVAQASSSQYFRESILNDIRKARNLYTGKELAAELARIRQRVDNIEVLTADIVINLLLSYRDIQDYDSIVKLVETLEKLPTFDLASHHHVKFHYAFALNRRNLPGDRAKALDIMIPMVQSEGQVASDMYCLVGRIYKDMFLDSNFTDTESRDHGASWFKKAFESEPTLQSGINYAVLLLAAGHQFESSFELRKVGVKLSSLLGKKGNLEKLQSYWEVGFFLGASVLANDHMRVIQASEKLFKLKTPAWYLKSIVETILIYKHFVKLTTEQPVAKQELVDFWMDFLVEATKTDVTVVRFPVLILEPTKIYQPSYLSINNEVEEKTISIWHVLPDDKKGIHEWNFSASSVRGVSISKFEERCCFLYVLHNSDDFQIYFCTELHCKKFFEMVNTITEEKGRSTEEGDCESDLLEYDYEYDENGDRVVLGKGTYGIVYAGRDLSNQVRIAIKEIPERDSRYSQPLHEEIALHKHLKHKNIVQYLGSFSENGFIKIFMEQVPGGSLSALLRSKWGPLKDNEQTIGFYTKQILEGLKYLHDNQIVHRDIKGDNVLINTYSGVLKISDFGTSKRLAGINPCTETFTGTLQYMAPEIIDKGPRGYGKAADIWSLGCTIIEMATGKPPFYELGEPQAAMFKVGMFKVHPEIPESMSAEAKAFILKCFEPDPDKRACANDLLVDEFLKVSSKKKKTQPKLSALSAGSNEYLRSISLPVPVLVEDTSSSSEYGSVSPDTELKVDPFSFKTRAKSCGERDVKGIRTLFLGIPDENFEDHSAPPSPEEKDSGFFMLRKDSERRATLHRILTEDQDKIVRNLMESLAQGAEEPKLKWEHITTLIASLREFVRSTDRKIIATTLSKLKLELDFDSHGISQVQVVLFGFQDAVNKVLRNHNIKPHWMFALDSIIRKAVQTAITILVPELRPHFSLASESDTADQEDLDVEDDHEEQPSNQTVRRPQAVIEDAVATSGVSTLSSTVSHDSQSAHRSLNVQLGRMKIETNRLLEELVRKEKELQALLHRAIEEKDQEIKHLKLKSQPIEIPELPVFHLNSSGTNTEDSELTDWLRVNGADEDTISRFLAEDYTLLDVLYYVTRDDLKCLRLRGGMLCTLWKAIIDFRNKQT
Put plainly: Selectivity interaction (KinomeScan (DiscoverX)) EUB0000618a MAP3K5. Conditions: at 10 µM.

The results in this text go back to ChEMBL document CHEMBL5465560, “Selectivity Literature for EUbOPEN Chemogenomic Library” (2024).

Chain of MAP kinase-interacting serine/threonine-protein kinase 2 (Q9HBH9 whole entry, looked up): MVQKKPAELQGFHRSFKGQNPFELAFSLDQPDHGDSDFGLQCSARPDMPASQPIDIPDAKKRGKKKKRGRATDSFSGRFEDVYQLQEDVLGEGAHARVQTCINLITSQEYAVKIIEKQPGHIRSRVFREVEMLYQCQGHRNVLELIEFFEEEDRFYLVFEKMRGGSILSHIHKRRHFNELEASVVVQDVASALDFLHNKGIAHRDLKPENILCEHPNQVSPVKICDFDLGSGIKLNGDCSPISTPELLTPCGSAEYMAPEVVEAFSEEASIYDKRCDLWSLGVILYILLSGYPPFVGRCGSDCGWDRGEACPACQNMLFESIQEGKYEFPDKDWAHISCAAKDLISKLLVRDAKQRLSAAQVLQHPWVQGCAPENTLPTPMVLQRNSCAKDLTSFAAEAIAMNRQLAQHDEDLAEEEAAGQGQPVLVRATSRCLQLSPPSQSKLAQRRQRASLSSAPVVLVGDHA
Chain of Mitogen-activated protein kinase 11 (Homo sapiens) (Q15759 whole entry): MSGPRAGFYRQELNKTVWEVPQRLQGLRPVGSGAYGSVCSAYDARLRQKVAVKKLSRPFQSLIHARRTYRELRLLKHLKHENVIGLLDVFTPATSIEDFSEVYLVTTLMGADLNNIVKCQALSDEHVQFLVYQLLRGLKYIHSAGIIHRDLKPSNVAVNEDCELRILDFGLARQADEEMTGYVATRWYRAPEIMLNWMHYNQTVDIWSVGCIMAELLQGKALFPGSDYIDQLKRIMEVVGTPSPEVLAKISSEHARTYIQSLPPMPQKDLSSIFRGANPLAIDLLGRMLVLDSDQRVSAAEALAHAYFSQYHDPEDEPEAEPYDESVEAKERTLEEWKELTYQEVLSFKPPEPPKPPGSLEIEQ
Chain of Mitogen-activated protein kinase kinase kinase 20 (Homo sapiens) (Q9NYL2 2-800 limits assumed): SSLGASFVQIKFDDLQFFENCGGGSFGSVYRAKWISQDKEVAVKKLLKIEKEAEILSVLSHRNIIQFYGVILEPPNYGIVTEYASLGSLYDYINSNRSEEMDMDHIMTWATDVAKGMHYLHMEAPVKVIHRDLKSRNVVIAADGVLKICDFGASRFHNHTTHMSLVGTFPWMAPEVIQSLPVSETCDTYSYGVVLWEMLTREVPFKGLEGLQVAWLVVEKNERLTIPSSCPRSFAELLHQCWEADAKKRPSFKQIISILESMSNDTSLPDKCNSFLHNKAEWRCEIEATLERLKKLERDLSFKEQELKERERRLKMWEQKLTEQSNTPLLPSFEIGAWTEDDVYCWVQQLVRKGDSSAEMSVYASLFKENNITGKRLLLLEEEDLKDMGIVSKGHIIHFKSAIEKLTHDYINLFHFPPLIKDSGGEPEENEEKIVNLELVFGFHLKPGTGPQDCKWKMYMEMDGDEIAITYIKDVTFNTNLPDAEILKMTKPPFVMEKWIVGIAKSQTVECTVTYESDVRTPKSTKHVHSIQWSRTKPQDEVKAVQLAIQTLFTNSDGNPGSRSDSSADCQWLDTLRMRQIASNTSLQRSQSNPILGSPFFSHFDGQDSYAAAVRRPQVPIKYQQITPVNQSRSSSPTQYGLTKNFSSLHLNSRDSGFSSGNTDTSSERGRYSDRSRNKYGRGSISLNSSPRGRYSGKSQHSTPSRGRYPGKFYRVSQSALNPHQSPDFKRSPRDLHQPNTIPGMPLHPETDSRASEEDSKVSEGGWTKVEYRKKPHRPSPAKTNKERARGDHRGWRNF

Consider `CN(C)C/C=C/C(=O)Nc1ccc(C(=O)N2CCCC(Nc3ncc(Cl)c(-c4c[nH]c5ccccc45)n3)C2)cc1` (configuration not stated), for which the % of control in experiment [1] came out at 89%.
In turn, `CNC(=O)Nc1ccc(-c2nc(N3CC4CCC(C3)O4)c3cnn(C4CCC5(CC4)OCCO5)c3n2)cc1` came in with a % of inhibition in experiment [2] of 2%.
In the case of `Cc1cc([C@@H](C)Nc2ccccc2C(=O)O)c2nc(N3CCOCC3)cc(=O)n2c1` [AZD-6482], the % of control in experiment [3] worked out at 100%.
As to `C=CC(=O)Nc1cccc(C(=O)Nc2ccc(Nc3cc(-c4[nH]c(SC)nc4C)ccn3)cc2)c1`, the figures for the % of control in experiment [4] (at 1 µM) and in experiment [4] (at 5 µM) were 80% and 31%, respectively.
Molecule `CCC(=O)N1CCN(c2ccc(-n3c(=O)ccc4cnc5ccc(-c6cnc7ccccc7c6)cc5c43)cc2C(F)(F)F)CC1` registered a % of control in experiment [5] of 40%.
`O[C@H]1CC[C@H](Nc2ncc3nc(Nc4c(F)cc(F)cc4F)n([C@H]4CCOC4)c3n2)CC1` showed a % of control in experiment [6] of 100%.
